In patent US9464058B2 (Hoffmann-La Roche Inc., priority 2012, dated 2016):

Experiments:
human CYP11B1 = molecular target: T1, human CYP11B1 (Homo sapiens, UniProt P15538); test: G-402 cellular enzyme assay, human CYP11B1 (cortisol release, HTRF); assay type: cell-based; details: G-402 cells expressing human CYP11B1; 1 μM Deoxycortisol; 16 h
T1 construct: expressed in transfected cells
T1 sequence (P15538 25-503): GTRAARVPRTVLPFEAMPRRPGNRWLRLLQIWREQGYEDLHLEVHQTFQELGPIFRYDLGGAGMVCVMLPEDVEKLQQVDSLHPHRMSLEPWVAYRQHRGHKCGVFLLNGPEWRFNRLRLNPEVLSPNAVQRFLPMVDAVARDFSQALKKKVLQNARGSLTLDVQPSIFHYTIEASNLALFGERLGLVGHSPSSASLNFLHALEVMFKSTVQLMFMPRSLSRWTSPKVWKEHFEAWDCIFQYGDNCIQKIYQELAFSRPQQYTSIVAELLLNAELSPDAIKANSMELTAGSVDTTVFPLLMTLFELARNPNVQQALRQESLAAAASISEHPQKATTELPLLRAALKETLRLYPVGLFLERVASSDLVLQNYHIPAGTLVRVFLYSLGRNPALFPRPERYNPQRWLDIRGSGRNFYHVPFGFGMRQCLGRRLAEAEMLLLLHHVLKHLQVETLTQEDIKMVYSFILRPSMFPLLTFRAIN
Description: (§1) Herein we identified the use of the G-402 cell line as a host cell to ectopically express (transiently or stably) enzymes of the CYP11 family. Specifically we developed stable G-402 cells expressing ectopically human CYP11B1, human CYP11B2, human CYP11A1, cynomolgus CYP11B1 or cynomolgus CYP11B2 enzyme activity. Importantly, the identified cell line G-402 expresses co-factors (adrenodoxin and adrenodoxin reductase) important for the activity of the CYP11 family, and no relevant enzyme activity of the CYP11 family (in comparison to H295R cells) was detected in these cells. Therefore the G-402 cell line is uniquely suited as a host cell for the ectopic expression of enzymes from the CYP11 family.
(§2) G-402 cells can be obtained from ATCC(CRL-1440) and were originally derived from a renal leiomyoblastoma.
(§3) The expression plasmids contains the ORF for either human/cyno CYP11B1 or CYP11B2 under the control of a suitable promoter (CMV-promoter) and a suitable resistance marker (neomycin). Using standard techniques the expression plasmid is transfected into G-402 cells and these cells are then selected for expressing the given resistance markers. Individual cell-clones are then selected and assessed for displaying the desired enzymatic activity using 11-Deoxycorticosterone (Cyp11B2) or 11-Deoxycortisol (Cyp11B1) as a substrate.
(§4) G-402 cells expressing CYP11 constructs were established as described above and maintained in McCoy's 5a Medium Modified, ATCC Catalog No. 30-2007 containing 10% FCS and 400 μg/ml G418 (Geneticin) at 37° C. under an atmosphere of 5% CO2/95% air. Cellular enzyme assays were performed in DMEM/F12 medium containing 2.5% charcoal treated FCS and appropriate concentration of substrate (0.3-10 uM 11-Deoxycorticosterone, 11-Deoxycortisol or Corticosterone). For assaying enzymatic activity, cells were plated onto 96 well plates and incubated for 16 h. An aliquot of the supernatant is then transferred and analyzed for the concentration of the expected product (Aldosterone for CYP11B2; Cortisol for CYP11B1). The concentrations of these steroids can be determined using HTRF assays from CisBio analyzing either Aldosterone or Cortisol.
(§5) Inhibition of the release of produced steroids can be used as a measure of the respective enzyme inhibition by test compounds added during the cellular enzyme assay. The dose dependent inhibition of enzymatic activity by a compound is calculated by means of plotting added inhibitor concentrations (x-axes) vs. measured steroid/product level (y-axes). The inhibition is then calculated by fitting the following 4-parameter sigmoidal function (Morgan-Mercer-Flodin (MMF) model) to the raw data points using the least squares method:
(§6) [formula] wherein A is the maximum y value, B is the EC50 factor determined using XLFit, C is the minimum y value and D is the slope value.
(§7) EC50 values for compounds claimed herein were tested with the G402-based assay system described. Cyp11B2 enzyme activity was tested in presence of 1 μM Deoxycorticosterone and variable amounts of inhibitors; Cyp11B1 enzyme activity was tested in presence of 1 μM Deoxycortisol and variable amounts of inhibitors.

human CYP11B2 = molecular target: T2, human CYP11B2 (Homo sapiens, UniProt P19099); test: G-402 cellular enzyme assay, human CYP11B2 (aldosterone release, HTRF); assay type: cell-based; details: G-402 cells expressing human CYP11B2; 1 μM Deoxycorticosterone; 16 h
T2 construct: expressed in transfected cells
T2 sequence (P19099 25-503): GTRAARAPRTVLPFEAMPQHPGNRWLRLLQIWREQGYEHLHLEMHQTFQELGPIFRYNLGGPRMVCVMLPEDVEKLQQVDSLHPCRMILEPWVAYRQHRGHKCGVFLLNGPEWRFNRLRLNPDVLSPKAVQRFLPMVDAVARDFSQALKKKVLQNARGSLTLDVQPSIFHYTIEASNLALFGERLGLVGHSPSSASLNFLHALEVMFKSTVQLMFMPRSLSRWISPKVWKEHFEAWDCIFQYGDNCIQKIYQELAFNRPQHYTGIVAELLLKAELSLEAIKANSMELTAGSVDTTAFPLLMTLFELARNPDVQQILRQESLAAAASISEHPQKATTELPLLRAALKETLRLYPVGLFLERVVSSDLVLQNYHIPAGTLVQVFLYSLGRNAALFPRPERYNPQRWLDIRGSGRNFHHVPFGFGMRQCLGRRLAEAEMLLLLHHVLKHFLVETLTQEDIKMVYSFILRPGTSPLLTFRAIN
Description: as §1, §2, §3, §4, §5, §6, §7

Row | EC50 (human CYP11B1) [nM] | EC50 (human CYP11B2) [nM] | SMILES
1 | 12500 | – | CN(C(=O)OC(C)(C)C)c1ccc(C(=O)c2cncn2C)cc1 [Example 85, Methyl-[4-(3-methyl-3H-imidazole-4-carbonyl)-phenyl]-carbamic acid tert-butyl ester]
2 | 9910 | 291 | CCn1cncc1C(=O)c1ccc(N(C)C(C)=O)cc1 [Example 67, N-[4-(3-Ethyl-3H-imidazole-4-carbonyl)-phenyl]-N-methyl-acetamide]
3 | 30400 | 186 | CN(C=O)c1ccc(C(=O)c2cncn2C)cc1 [Example 87, N-Methyl-N-[4-(3-methyl-3H-imidazole-4-carbonyl)-phenyl]-formamide]
4 | 199 | 5.6 | N#Cc1ccc(-n2cncc2C(=O)c2ccc(Cl)c(Cl)c2)cc1 [Example 96, 4-[5-(3,4-Dichloro-benzoyl)-imidazol-1-yl]-benzonitrile]
5 | – | 3530 | Cn1cncc1C(=O)c1ccc(S(C)(=O)=O)cc1 [Example 47, (4-Methanesulfonyl-phenyl)-(3-methyl-3H-imidazol-4-yl)-methanone]
6 | 11300 | 575 | Cn1cncc1C(=O)c1ccc(F)c(C#N)c1 [Example 45, 2-Fluoro-5-(3-methyl-3H-imidazole-4-carbonyl)-benzonitrile]
7 | 304 | 11.7 | Cn1cncc1C(=O)c1ccc(F)c(Cl)c1 [Example 32, (3-Chloro-4-fluoro-phenyl)-(3-methyl-3H-imidazol-4-yl)-methanone]
8 | 3250 | 102 | CCSc1ccc(C(=O)c2cncn2C)cc1 [Example 51, (4-Ethylsulfanyl-phenyl)-(3-methyl-3H-imidazol-4-yl)-methanone]
9 | 3.5 | 0.3 | CCC(C)n1cncc1C(=O)c1ccc(Cl)cc1 (centres unmarked) [Example 17]
10 | 4.5 | 0.8 | CC(C)n1cncc1C(=O)c1ccc(C#N)cc1 [Example 6, 4-(3-Isopropyl-3H-imidazole-4-carbonyl)-benzonitrile]
11 | 28.7 | 2.3 | N#Cc1ccc(C(=O)c2cncn2C2CC2)cc1 [Example 18, 4-(3-Cyclopropyl-3H-imidazole-4-carbonyl)-benzonitrile]
12 | 74.6 | 3.4 | O=C(c1ccc(F)c(F)c1)c1cncn1-c1ccc(Cl)cc1 [Example 97, [3-(4-Chloro-phenyl)-3H-imidazol-4-yl]-(3,4-difluoro-phenyl)-methanone]
13 | 70.3 | 10.8 | CC(C)n1cncc1C(=O)c1ccc(C#N)cc1F [Example 10, 3-Fluoro-4-(3-isopropyl-3H-imidazole-4-carbonyl)-benzonitrile]
14 | 21 | 3.5 | O=C(c1ccc(F)c(Cl)c1)c1cncn1C1CC1 [Example 41, (3-Chloro-4-fluoro-phenyl)-(3-cyclopropyl-3H-imidazol-4-yl)-methanone]
15 | 6.8 | 0.5 | C#Cc1ccc(C(=O)c2cncn2C(C)C)cc1 [Example 54, (4-Ethynyl-phenyl)-(3-isopropyl-3H-imidazol-4-yl)-methanone]
16 | 1750 | 58.7 | CCn1cncc1C(=O)c1ccc(C(F)(F)F)cc1 [Example 36, (3-Ethyl-3H-imidazol-4-yl)-(4-trifluoromethyl-phenyl)-methanone]

Row | EC50 (human CYP11B1) [nM] | EC50 (human CYP11B2) [nM] | SMILES
17 | 8.7 | 0.2 | COc1cc(C(=O)c2cncn2C(C)C)ccc1SC [Example 61, (3-Isopropyl-3H-imidazol-4-yl)-(3-methoxy-4-methylsulfanyl-phenyl)-methanone]
18 | 20 | 1.8 | CCn1cncc1C(=O)c1ccc(Cl)c(Cl)c1 [Example 15, (3,4-Dichloro-phenyl)-(3-ethyl-3H-imidazol-4-yl)-methanone]
19 | 1.8 | 0.5 | CC(C)n1cncc1C(=O)c1ccc(Cl)c(Cl)c1 [Example 14, (3,4-Dichloro-phenyl)-(3-isopropyl-3H-imidazol-4-yl)-methanone]
20 | 673 | 65.2 | Cn1cncc1C(=O)c1cccc(F)c1 [Example 24, (3-Fluoro-phenyl)-(3-methyl-3H-imidazol-4-yl)-methanone]
21 | 3620 | 2.6 | O=C(c1ccc(Cl)cc1)c1cncn1-c1ccc(Cl)cc1 [Example 90, (4-Chloro-phenyl)-[3-(4-chloro-phenyl)-3H-imidazol-4-yl]-methanone]
22 | – | 390 | Cn1cncc1C(=O)c1ccc(SC(F)(F)F)cc1 [Example 73, (3-Methyl-3H-imidazol-4-yl)-(4-trifluoromethylsulfanyl-phenyl)-methanone]
23 | 89.3 | 7.4 | Cn1cncc1C(=O)c1ccc(C#N)c(Cl)c1 [Example 42, 2-Chloro-4-(3-methyl-3H-imidazole-4-carbonyl)-benzonitrile]
24 | 190 | 23.5 | N#Cc1ccc(C(=O)c2cncn2CC(F)(F)F)cc1 [Example 20, 4-[3-(2,2,2-Trifluoro-ethyl)-3H-imidazole-4-carbonyl]-benzonitrile]
25 | 1070 | 40.9 | Cn1cncc1C(=O)c1ccc2sccc2c1 [Example 44, Benzo[b]thiophen-5-yl-(3-methyl-3H-imidazol-4-yl)-methanone]
26 | 84.6 | 14.4 | N#Cc1ccc(-n2cncc2C(=O)c2ccc(Cl)c(F)c2)cc1 [Example 94, 4-[5-(4-Chloro-3-fluoro-benzoyl)-imidazol-1-yl]-benzonitrile]
27 | 1 | 0.2 | CC(C)n1cncc1C(=O)c1ccc(C#N)c(Cl)c1 [Example 49, 2-Chloro-4-(3-isopropyl-3H-imidazole-4-carbonyl)-benzonitrile]
28 | 439 | 4.2 | O=C(c1ccc(Cl)c(Cl)c1)c1cncn1-c1ccc(Cl)cc1 [Example 91, [3-(4-Chloro-phenyl)-3H-imidazol-4-yl]-(3,4-dichloro-phenyl)-methanone]
29 | 151 | 49.3 | Cn1cncc1C(=O)c1ccc(F)cc1 [Example 23, (4-Fluoro-phenyl)-(3-methyl-3H-imidazol-4-yl)-methanone]
30 | 488 | 18.6 | Cn1cncc1C(=O)c1ccc(Br)cc1 [Example 68, (4-Bromo-phenyl)-(3-methyl-3H-imidazol-4-yl)-methanone]
31 | – | 923 | CC(=O)N(C)c1ccc(C(=O)c2cncn2C)cc1 [Example 55, N-Methyl-N-[4-(3-methyl-3H-imidazole-4-carbonyl)-phenyl]-acetamide]
32 | 9880 | – | Cn1cncc1C(=O)c1ccc(C(C)(C)C)cc1 [Example 30, (4-tert-Butyl-phenyl)-(3-methyl-3H-imidazol-4-yl)-methanone]
